Laboratory results as given in US11590139B2, “Substituted aminopurine compounds, compositions thereof, and methods of treatment therewith” (Signal Pharmaceuticals, LLC, priority 2014, dated 2023).

System: Lox-IMVI melanoma cell line
Test: Lox-IMVI anti-proliferative assay (growth inhibition, Cell Titer-Glo)
Type: cell-based, human
Conditions: Homo sapiens; IC50 activity level in the cell-based Lox-IMVI anti-proliferative assay; read-out: Activity
Outline: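 Luminescence from cellular ATP measured viability at compound addition and again after 72 h of exposure (37 °C, 5% CO2, RPMI + 10% FBS). Doses spanned 0.5 nM to 10 μM in ten 3-fold steps with 0.2% DMSO. Values were fitted as % of DMSO-treated cells by sigmoidal dose-response.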

| IC50 | Compound |
| --- | --- |
| > 1000 nM | NC(=O)[C@H]1CC[C@@H](n2c(Nc3c(F)cccc3Cl)nc3cnc(N[C@@H]4CCC[C@H]4O)nc32)CC1 [Example 250, (1S,4s)-4-(8-(2-chloro-6-fluorophenylamino)-2-((1R,2R)-2-hydroxycyclopentylamino)-9H-purin-9-yl)cyclohexanecarboxamide] |
| > 1000 nM | NC(=O)[C@H]1CC[C@@H](n2c(Nc3c(F)cccc3F)nc3cnc(N[C@@H]4CCC[C@H]4O)nc32)CC1 [Example 251, (1S,4s)-4-(8-(2,6-difluorophenylamino)-2-((1R,2R)-2-hydroxycyclopentylamino)-9H-purin-9-yl)cyclohexanecarboxamide] |
| > 1000 nM | NC(=O)[C@H]1CC[C@@H](n2c(Nc3c(F)cc(F)cc3Cl)nc3cnc(N[C@@H]4CCC[C@H]4O)nc32)CC1 [Example 252, (1S,4s)-4-(8-(2-chloro-4,6-difluorophenylamino)-2-((1R,2R)-2-hydroxycyclopentylamino)-9H-purin-9-yl)cyclohexanecarboxamide] |
| > 1000 nM | NC(=O)[C@H]1CC[C@@H](n2c(Nc3c(Cl)cccc3Cl)nc3cnc(N[C@@H]4CCC[C@H]4O)nc32)CC1 [Example 253, (1S,4s)-4-(8-(2,6-dichlorophenylamino)-2-((1R,2R)-2-hydroxycyclopentylamino)-9H-purin-9-yl)cyclohexanecarboxamide] |
| 500 to 1000 nM | NC(=O)[C@H]1CC[C@@H](n2c(Nc3c(Cl)cc(Cl)cc3Cl)nc3cnc(N[C@@H]4CCC[C@H]4O)nc32)CC1 [Example 254, (1S,4s)-4-(2-((1R,2R)-2-hydroxycyclopentylamino)-8-(2,4,6-trichlorophenylamino)-9H-purin-9-yl)cyclohexanecarboxamide] |
| > 1000 nM | NC(=O)[C@H]1CC[C@@H](n2c(Nc3c(F)cc(Cl)cc3Cl)nc3cnc(N[C@@H]4CCC[C@H]4O)nc32)CC1 [Example 255, (1S,4s)-4-(8-(2,4-dichloro-6-fluorophenylamino)-2-((1R,2R)-2-hydroxycyclopentylamino)-9H-purin-9-yl)cyclohexanecarboxamide] |
| > 1000 nM | NC(=O)[C@H]1CC[C@@H](n2c(Nc3c(Cl)cc(F)cc3Cl)nc3cnc(N[C@@H]4CCC[C@H]4O)nc32)CC1 [Example 256, (1S,4s)-4-(8-(2,6-dichloro-4-fluorophenylamino)-2-((1R,2R)-2-hydroxycyclopentylamino)-9H-purin-9-yl)cyclohexanecarboxamide] |
| 500 to 1000 nM | NC(=O)[C@H]1CC[C@@H](n2c(Nc3c(F)cc(Cl)cc3F)nc3cnc(N[C@@H]4CCC[C@H]4O)nc32)CC1 [Example 257, (1S,4s)-4-(8-(4-chloro-2,6-difluorophenylamino)-2-((1R,2R)-2-hydroxycyclopentylamino)-9H-purin-9-yl)cyclohexanecarboxamide] |
| > 1000 nM | NC(=O)[C@H]1CC[C@@H](n2c(Nc3ccc(Cl)c(F)c3F)nc3cnc(N[C@@H]4CCC[C@H]4O)nc32)CC1 [Example 258, (1S,4s)-4-(8-(4-chloro-2,3-difluorophenylamino)-2-((1R,2R)-2-hydroxycyclopentylamino)-9H-purin-9-yl)cyclohexanecarboxamide] |
| > 1000 nM | NC(=O)[C@H]1CC[C@@H](n2c(Nc3c(F)ccc(Cl)c3F)nc3cnc(N[C@@H]4CCC[C@H]4O)nc32)CC1 [Example 259, (1S,4s)-4-(8-(3-chloro-2,6-difluorophenylamino)-2-((1R,2R)-2-hydroxycyclopentylamino)-9H-purin-9-yl)cyclohexanecarboxamide] |
| > 1000 nM | NC(=O)[C@H]1CC[C@@H](n2c(Nc3c(F)ccc(F)c3F)nc3cnc(N[C@@H]4CCC[C@H]4O)nc32)CC1 [Example 260, (1S,4s)-4-(2-((1R,2R)-2-hydroxycyclopentylamino)-8-(2,3,6-trifluorophenylamino)-9H-purin-9-yl)cyclohexanecarboxamide] |
| > 1000 nM | NC(=O)[C@H]1CC[C@@H](n2c(Nc3ccc(Cl)cc3Cl)nc3cnc(N[C@@H]4CCC[C@H]4O)nc32)CC1 [Example 261, (1S,4s)-4-(8-(2,4-dichlorophenylamino)-2-((1R,2R)-2-hydroxycyclopentylamino)-9H-purin-9-yl)cyclohexanecarboxamide] |
| > 1000 nM | NC(=O)[C@H]1CC[C@@H](n2c(Nc3cc(Cl)ccc3F)nc3cnc(N[C@@H]4CCC[C@H]4O)nc32)CC1 [Example 262, (1S,4s)-4-(8-(5-chloro-2-fluorophenylamino)-2-((1R,2R)-2-hydroxycyclopentylamino)-9H-purin-9-yl)cyclohexanecarboxamide] |
| > 1000 nM | NC(=O)[C@H]1CC[C@@H](n2c(Nc3cccc(Cl)c3F)nc3cnc(N[C@@H]4CCC[C@H]4O)nc32)CC1 [Example 263, (1S,4s)-4-(8-(3-chloro-2-fluorophenylamino)-2-((1R,2R)-2-hydroxycyclopentylamino)-9H-purin-9-yl)cyclohexanecarboxamide] |
| > 1000 nM | NC(=O)[C@H]1CC[C@@H](n2c(Nc3ccc(F)c(F)c3F)nc3cnc(N[C@@H]4CCC[C@H]4O)nc32)CC1 [Example 264, (1S,4s)-4-(2-((1R,2R)-2-hydroxycyclopentylamino)-8-(2,3,4-trifluorophenylamino)-9H-purin-9-yl)cyclohexanecarboxamide] |
| > 1000 nM | NC(=O)[C@H]1CC[C@@H](n2c(Nc3cc(F)c(Cl)cc3F)nc3cnc(N[C@@H]4CCC[C@H]4O)nc32)CC1 [Example 265, (1S,4s)-4-(8-(4-chloro-2,5-difluorophenylamino)-2-((1R,2R)-2-hydroxycyclopentylamino)-9H-purin-9-yl)cyclohexanecarboxamide] |
| > 1000 nM | NC(=O)[C@H]1CC[C@@H](n2c(Nc3c(F)cc(F)cc3F)nc3cnc(N[C@H]4CCC[C@@H]4O)nc32)CC1 [Example 266, (1R,4s)-4-(2-((1S,2S)-2-hydroxycyclopentylamino)-8-(2,4,6-trifluorophenylamino)-9H-purin-9-yl)cyclohexanecarboxamide] |
| > 1000 nM | NC(=O)[C@H]1CC[C@@H](n2c(Nc3c(F)cccc3F)nc3cnc(N[C@H]4CCC[C@@H]4O)nc32)CC1 [Example 267, (1R,4s)-4-(8-(2,6-difluorophenylamino)-2-((1S,2S)-2-hydroxycyclopentylamino)-9H-purin-9-yl)cyclohexanecarboxamide] |
| > 1000 nM | NC(=O)[C@H]1CC[C@@H](n2c(Nc3c(Cl)cccc3Cl)nc3cnc(N[C@H]4CCC[C@@H]4O)nc32)CC1 [Example 268, (1R,4s)-4-(8-(2,6-dichlorophenylamino)-2-((1S,2S)-2-hydroxycyclopentylamino)-9H-purin-9-yl)cyclohexanecarboxamide] |
| > 1000 nM | NC(=O)[C@H]1CC[C@@H](n2c(Nc3c(F)cc(Cl)cc3F)nc3cnc(N[C@H]4CCC[C@@H]4O)nc32)CC1 [Example 269, (1R,4s)-4-(8-(4-chloro-2,6-difluorophenylamino)-2-((1S,2S)-2-hydroxycyclopentylamino)-9H-purin-9-yl)cyclohexanecarboxamide] |
| > 1000 nM | NC(=O)[C@H]1CC[C@@H](n2c(Nc3c(Cl)cc(Cl)cc3Cl)nc3cnc(N[C@H]4CCC[C@@H]4O)nc32)CC1 [Example 270, (1R,4s)-4-(2-((1S,2S)-2-hydroxycyclopentylamino)-8-(2,4,6-trichlorophenylamino)-9H-purin-9-yl)cyclohexanecarboxamide] |
